ChEMBL document CHEMBL3045840, “Application of pocket modeling and k-nearest neighbor molecular field analysis (kNN-MFA) for designing of some anticoagulants: potential factor IXa inhibitors” (Med Chem Res, 2013)
≈ marks a conversion by molar mass, not a printed value.

How the values were obtained:
[1] = Anticoagulant activity in plasma assessed as elongation in mean prothrombin time after 5 min by Quick's method; assay type: functional, cell-free
[2] = Octanol-water partition coefficient, log P of the compound; assay type: physicochemical

Compound	IC50 [1] [µg/mL]	logP [2]
C/C(CC(=O)Nc1nnc(-c2ccc(O)cc2)s1)=N\c1ccc([N+](=O)[O-])cn1	2800 (≈ 7.03 mM)	3.34
CC(=O)Oc1ccccc1-c1nnc(NC(=O)C/C(C)=N/c2ccccn2)s1	2600 (≈ 6.57 mM)	3.65
C/C(CC(=O)Nc1nnc(/C=C/c2ccccc2)s1)=N\c1ccc([N+](=O)[O-])cn1	3000 (≈ 7.34 mM)	4.13
C/C(CC(=O)Nc1nnc(-c2ccc([N+](=O)[O-])cc2)s1)=N\c1ccccn1	1200 (≈ 3.14 mM)	3.63
C/C(CC(=O)Nc1nnc(-c2ccc(N)cc2)s1)=N\c1ccccn1	3500 (≈ 9.93 mM)	3.3
C/C(CC(=O)Nc1nnc(/C=C/c2ccccc2)s1)=N\c1ccccn1	2400 (≈ 6.6 mM)	4.22
C/C(CC(=O)Nc1nnc(-c2ccc(O)cc2)s1)=N\c1ccccn1	3100 (≈ 8.77 mM)	3.43
CC(=O)Oc1ccccc1-c1nnc(NC(=O)C/C(C)=N/c2ccc([N+](=O)[O-])cn2)s1	2100 (≈ 4.77 mM)	3.55
C/C(CC(=O)Nc1nnc(-c2ccc([N+](=O)[O-])cc2)s1)=N\c1ccc([N+](=O)[O-])cn1	1200 (≈ 2.81 mM)	3.54
C/C(CC(=O)Nc1nnc(-c2ccc(N)cc2)s1)=N\c1ccc([N+](=O)[O-])cn1	2700 (≈ 6.79 mM)	3.21
